This note sets out measurements from US5116985A, “Isoquinoline derivatives and salts thereof” (priority 1989, dated 1992).

Assay [1] deals with T1, trypsin (Bos taurus, UniProt P00760).
T1 sequence (P00760 24-246): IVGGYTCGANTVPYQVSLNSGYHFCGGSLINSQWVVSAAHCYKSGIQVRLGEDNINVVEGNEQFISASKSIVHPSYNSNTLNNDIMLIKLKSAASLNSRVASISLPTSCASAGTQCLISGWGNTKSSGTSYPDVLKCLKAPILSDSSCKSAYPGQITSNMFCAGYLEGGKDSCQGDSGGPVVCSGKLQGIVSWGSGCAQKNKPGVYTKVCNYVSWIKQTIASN
Nature of the assay: Inhibition of trypsin hydrolysis of casein, in vitro. It is filed as biochemical. The conditions noted are these: casein substrate, 20 μg of trypsin, 37° C., 10 minutes; read-out: 50% inhibitory concentration, substrate casein. The protocol: (§1) The inhibitory activity on trypsin in vitro was determined by the methods of Muramatsu, et al. described in the Journal of Biochemistry, 58, 214 (1965).

In assay [2] the target is T1, trypsin. Nature of the assay: Inhibition of trypsin hydrolysis of TAME (p-tosylarginine methyl ester), in vitro. It is filed as biochemical. Conditions: TAME substrate, 1.5 μg of trypsin, 37° C., 10 minutes; read-out: 50% inhibitory concentration, substrate TAME. The protocol: as §1

Counter-ions that a name gives are not always drawn.

Consider `N=C(N)Nc1ccc(C(=O)Oc2cccc3c(C(=O)O)nccc23)cc1` [Compound No. 5, 1'-Carboxy-5'-isoquinolyl 4-guanidinobenzoate quarterhydrate], for which the IC50 at trypsin [1] worked out at 170 nM; on trypsin [2] it was 64 nM.
The like results for `CCCCOC(=O)c1nccc2c(OC(=O)c3ccc(NC(=N)N)cc3)cccc12` [Compound No. 10, 1'-Butoxycarbonyl-5'-isoquinolyl 4-guanidinobenzoate hydrochloride monohydrate] were, in that order, 210 nM and 150 nM.
In the case of `CCCOC(=O)c1nccc2c(OC(=O)c3ccc(NC(=N)N)cc3)cccc12` [Compound No. 8, 1'-Propoxycarbonyl-5'-isoquinolyl 4-guanidinobenzoate methanesulfonate], the IC50 at trypsin [1] was determined as 160 nM; at trypsin [2], 96 nM.
On to `CN(C)C(=O)COC(=O)Cc1ccc(OC(=O)c2ccc(NC(=N)N)cc2)cc1` [Camostat mesylate, N,N-Dimethylcarbamoylmethyl -p-( -p-guanidinobenzoyloxy)phenylacetate methanesulfonate, reference compound], for which the IC50 amounted to 140 nM on trypsin [1] and 65 nM on trypsin [2].
Regarding `N=C(N)Nc1ccc(C(=O)Oc2cccc3c(C(N)=O)nccc23)cc1` [Compound No. 6, 1'-Carbamoyl-5'-isoquinolyl 4-guanidinobenzoate methanesulfonate hemihydrate], the IC50 at trypsin [1] amounted to 160 nM; at trypsin [2], 56 nM.
In the case of `N=C(N)Nc1ccc(C(=O)Oc2cccc3c(C(=O)OCc4ccccc4)nccc23)cc1` [Compound No. 11, 1'-Benzyloxycarbonyl-5'-isoquinolyl 4-guanidinobenzoate hydrochloride monohydrate], the IC50 came to 410 nM on trypsin [1] and 340 nM on trypsin [2].
For the compound `CCOC(=O)c1ccc(OC(=O)CCCCCNC(=N)N)cc1` [Gabexate mesylate, Ethyl 4-(6-guanidinohexanoyloxy)benzoate methanesulfonate, reference compound], the IC50 was 2200 nM on trypsin [1] and 15000 nM at trypsin [2].
For `CC(C)OC(=O)c1nccc2c(OC(=O)c3ccc(NC(=N)N)cc3)cccc12` [Compound No. 9, 1'-Isopropoxycarbonyl-5'-isoquinolyl 4-guanidinobenzoate hydrochloride], the IC50 stood at 160 nM on trypsin [1] and 130 nM at trypsin [2].
The like results for `N#Cc1nccc2c(OC(=O)c3ccc(NC(=N)N)cc3)cccc12` [Compound No. 3, 1'-Cyano-5'-isoquinolyl 4-guanidinobenzoate methanesulfonate monohydrate] were, in that order, 140 nM and 56 nM.
In the same order, the values of `CC(=O)c1nccc2c(OC(=O)c3ccc(NC(=N)N)cc3)cccc12` [Compound No. 4, 1'-Acetyl-5'-isoquinolyl 4-guanidinobenzoate hydrochloride] are 140 nM and 57 nM.
The like results for `CN(C)C(=O)COC(=O)c1nccc2c(OC(=O)c3ccc(NC(=N)N)cc3)cccc12` [Compound No. 12, 1'-(N,N-Dimethylcarbamoyl)methoxycarbonyl-5'-isoquinolyl 4-guanidinobenzoate hydrochloride] were, in that order, 140 nM and 66 nM.
As to `N=C(N)Nc1ccc(C(=O)Oc2cccc3c(O)nccc23)cc1` [Compound No. 2, 1'-Hydroxy-5'-isoquinolyl 4-guanidinobenzoate methanesulfonate], the IC50 was determined as 140 nM on trypsin [1] and 64 nM on trypsin [2].
With `CCOC(=O)c1nccc2c(OC(=O)c3ccc(NC(=N)N)cc3)cccc12` [Compound No. 7, 1'-Ethoxycarbonyl-5'-isoquinolyl 4-guanidinobenzoate hydrochloride], the IC50 at trypsin [1] is 120 nM; on trypsin [2], 56 nM.
The like results for `N=C(N)Nc1ccc(C(=O)Oc2cccc3cnccc23)cc1` [Compound No. 1, 5-Isoquinolyl 4-guanidinobenzoate dimethanesulfonate monohydrate] were, in that order, 130 nM and 56 nM.
